This note sets out measurements from article PMC9663854, “AadA36, a novel chromosomal aminoglycoside nucleotidyltransferase from a clinical isolate of Providencia stuartii” (Frontiers in Microbiology, 2022).

The assay relates to T1, AadA36.
T1 construct: N-terminal His-tag removed with thrombin
The assay can be described thus: coupled NADPH assay at […] nm (UDP-glucose pyrophosphorylase, phosphoglucomutase, glucose-6-phosphate dehydrogenase), Michaelis-Menten fit. Type of assay: biochemical, Providencia stuartii. The note with it: 50 mM HEPES pH 7.5, 10 mM MgCl2, 1 mM ATP, 0.2 mM DTT, substrate 5-150 μM.

The structures appear in SMILES notation.

Take `CN[C@@H]1[C@H](O)[C@H](NC)[C@H]2O[C@@]3(O)C(=O)C[C@@H](C)O[C@H]3O[C@@H]2[C@H]1O` [spectinomycin]: the Km came to 49.1 ± 12.8 µM.

As to `[H]/N=C(/N)N[C@H]1[C@H](O)[C@@H](O)[C@H](O[C@@H]2O[C@@H](C)[C@](O)(C=O)[C@H]2O[C@@H]2O[C@@H](CO)[C@H](O)[C@@H](O)[C@@H]2NC)[C@@H](N/C(N)=N\[H])[C@@H]1O` [streptomycin], the Km is 59.5 ± 14.1 µM.
